Consider six molecules from ChEMBL document CHEMBL5614367, “Hydroxamic acid hybrids: Histone deacetylase inhibitors with anticancer therapeutic potency” (Eur J Med Chem, 2023).

The test system of data set [1] is MDA-MB-231. In words: Antiproliferative activity against human MDA-MB-231 cells.
Data set [2] has as its target T1, Protein deacetylase HDAC6 (Homo sapiens, UniProt Q9UBN7).
T1 sequence (Q9UBN7 whole entry): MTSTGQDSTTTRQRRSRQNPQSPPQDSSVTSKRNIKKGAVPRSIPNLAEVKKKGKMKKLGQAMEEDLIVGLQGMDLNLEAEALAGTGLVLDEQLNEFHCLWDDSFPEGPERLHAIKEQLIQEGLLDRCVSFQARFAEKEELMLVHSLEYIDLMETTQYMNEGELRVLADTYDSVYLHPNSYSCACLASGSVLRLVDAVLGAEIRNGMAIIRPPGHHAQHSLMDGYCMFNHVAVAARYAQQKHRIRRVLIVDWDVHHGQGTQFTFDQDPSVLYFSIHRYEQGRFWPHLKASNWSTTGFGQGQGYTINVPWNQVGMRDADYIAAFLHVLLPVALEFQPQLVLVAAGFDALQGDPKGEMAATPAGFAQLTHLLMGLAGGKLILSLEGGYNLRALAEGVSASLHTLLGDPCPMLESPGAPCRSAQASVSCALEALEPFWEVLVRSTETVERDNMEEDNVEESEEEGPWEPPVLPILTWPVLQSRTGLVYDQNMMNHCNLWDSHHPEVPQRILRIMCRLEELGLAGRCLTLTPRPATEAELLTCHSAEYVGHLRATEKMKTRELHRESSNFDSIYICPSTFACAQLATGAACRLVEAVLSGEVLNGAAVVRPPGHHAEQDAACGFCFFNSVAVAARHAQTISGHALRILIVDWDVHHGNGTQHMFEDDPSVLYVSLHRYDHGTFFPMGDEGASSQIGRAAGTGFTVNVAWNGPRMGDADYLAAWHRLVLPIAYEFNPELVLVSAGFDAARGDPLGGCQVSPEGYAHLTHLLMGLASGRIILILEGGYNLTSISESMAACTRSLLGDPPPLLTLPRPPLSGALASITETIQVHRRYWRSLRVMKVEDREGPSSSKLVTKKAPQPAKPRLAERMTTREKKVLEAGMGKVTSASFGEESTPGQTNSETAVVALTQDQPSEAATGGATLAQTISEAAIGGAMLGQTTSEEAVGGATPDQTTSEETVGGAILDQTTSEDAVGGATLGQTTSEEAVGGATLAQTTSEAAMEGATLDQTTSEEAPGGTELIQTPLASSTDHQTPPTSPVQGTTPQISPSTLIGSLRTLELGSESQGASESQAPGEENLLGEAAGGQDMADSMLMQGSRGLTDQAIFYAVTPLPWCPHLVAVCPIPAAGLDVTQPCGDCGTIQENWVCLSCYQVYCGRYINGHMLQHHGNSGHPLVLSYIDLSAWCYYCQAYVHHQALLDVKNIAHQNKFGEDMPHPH
In words: Inhibition of HDAC6 (unknown origin).

For data set [3], the system named is PC-3. In words: Antiproliferative activity against human PC-3 cells. Format: functional, cell-based.
The subject of data set [4] is SW-620. The data set can be described thus: Antiproliferative activity against human SW620 cells. Type of data set: functional, cell-based.
The test system of data set [5] is TALL-1. The data set can be described thus: Antiproliferative activity against human TALL-1 cells. Format: functional, cell-based.
The test system of data set [6] is K562. In words: Antiproliferative activity against human K562 cells. Format: functional, cell-based.
Data set [7] deals with CCRF-HSB-2. The data set can be described thus: Antiproliferative activity against human CCRF-HSB-2 cells. Type of data set: functional, cell-based.
For data set [8], the system named is HL-60. In words: Antiproliferative activity against human HL-60 cells. Type of data set: functional, cell-based.
Data set [9] relates to MOLT-4. The data set can be described thus: Antiproliferative activity against human MOLT-4 cells. Type of data set: functional, cell-based.
Data set [10] relates to Jurkat. In words: Antiproliferative activity against human Jurkat cells. Type of data set: functional, cell-based.
Data set [11] relates to A549. The data set can be described thus: Antitumor activity against human A549 cells xenografted in zebrafish model assessed as inhibition of cell proliferation incubated for 5 days by fluorescence microscopic analysis. Type of data set: functional, cell-based. The conditions noted are these: A549, 120 h. For orientation: Xenograft models place foreign cells or tissue in a host animal.

The test system of data set [12] is HL-60. The data set can be described thus: cells. Format: functional, cell-based. The conditions noted are these: Homo sapiens, HL-60, 72 h.
Data set [13] can be described thus: Cytotoxicity against rat H9c2 cells assessed as inhibition of cell growth incubated for 72 hrs by MTT assay. Type of data set: toxicity, cell-based. On the technique in general: Tetrazolium dyes change colour on reduction, which living cells bring about.
Data set [14] relates to HepG2. The data set can be described thus: cells. Type of data set: functional, cell-based. Conditions: Homo sapiens, HepG2, 72 h.
The target of data set [15] is Histone deacetylase 3 (Homo sapiens, UniProt O15379). In words: Inhibition of HDAC3 (unknown origin) incubated for 30 mins by fluorescence based microplate reader analysis.
Histone deacetylase 3, sequence (O15379 whole entry): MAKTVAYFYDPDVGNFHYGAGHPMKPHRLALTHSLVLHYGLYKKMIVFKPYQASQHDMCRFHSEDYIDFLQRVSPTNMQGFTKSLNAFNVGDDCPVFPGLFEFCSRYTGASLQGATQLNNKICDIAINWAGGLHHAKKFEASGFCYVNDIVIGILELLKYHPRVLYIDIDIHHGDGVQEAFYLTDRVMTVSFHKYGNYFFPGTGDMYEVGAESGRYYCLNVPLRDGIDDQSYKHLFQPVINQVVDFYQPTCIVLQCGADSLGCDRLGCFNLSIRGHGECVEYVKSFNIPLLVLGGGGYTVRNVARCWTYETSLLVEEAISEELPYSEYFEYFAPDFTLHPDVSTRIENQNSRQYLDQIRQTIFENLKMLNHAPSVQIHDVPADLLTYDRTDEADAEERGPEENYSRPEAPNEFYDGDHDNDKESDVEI
Data set [16] has as its system Raji. The data set can be described thus: cells. Format: functional, cell-based. Conditions: Homo sapiens, 72 h.
Data set [17] relates to TPC1. The data set can be described thus: cells. Format: functional, cell-based. The conditions noted are these: Homo sapiens, TPC1, 72 h.
Data set [18] deals with T2, Histone deacetylase 2 (Homo sapiens, UniProt Q92769). In words: Inhibition of HDAC2 (unknown origin) incubated for 30 mins by fluorescence based microplate reader analysis.
T2 sequence (Q92769 whole entry): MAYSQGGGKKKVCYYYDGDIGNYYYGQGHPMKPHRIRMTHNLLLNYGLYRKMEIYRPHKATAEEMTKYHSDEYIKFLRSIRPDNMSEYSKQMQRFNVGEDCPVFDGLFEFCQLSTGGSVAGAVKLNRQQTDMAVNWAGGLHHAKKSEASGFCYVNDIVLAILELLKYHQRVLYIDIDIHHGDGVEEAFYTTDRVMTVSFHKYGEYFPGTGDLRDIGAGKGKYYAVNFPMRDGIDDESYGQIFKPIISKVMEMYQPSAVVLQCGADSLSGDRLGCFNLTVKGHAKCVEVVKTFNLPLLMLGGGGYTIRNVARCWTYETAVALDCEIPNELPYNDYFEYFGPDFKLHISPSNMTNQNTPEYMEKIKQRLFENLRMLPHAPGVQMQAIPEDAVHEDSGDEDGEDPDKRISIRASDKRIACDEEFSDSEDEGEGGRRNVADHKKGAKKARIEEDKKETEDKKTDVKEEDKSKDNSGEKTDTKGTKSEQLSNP
Data set [19] concerns KYSE-30. The data set can be described thus: cells. Type of data set: functional, cell-based. The conditions noted are these: Homo sapiens, KYSE-30, 72 h.
The test system of data set [20] is A549. The data set can be described thus: cells. Format: functional, cell-based. The conditions noted are these: Homo sapiens, A549, 72 h.
Data set [21] addresses T1, Protein deacetylase HDAC6. The data set can be described thus: Inhibition of HDAC6 (unknown origin) incubated for 30 mins by fluorescence based microplate reader analysis.
The subject of data set [22] is HGC-27. The data set can be described thus: cells. Type of data set: functional, cell-based. The conditions noted are these: Homo sapiens, HGC-27, 72 h.
A short description of data set [23]: Cytotoxicity against human CCC-HEL-1 cells assessed as inhibition of cell growth incubated for 72 hrs by MTT assay. Format: toxicity, cell-based.
Data set [24] can be described thus: Cytotoxicity against human HDFa cells assessed as inhibition of cell growth incubated for 72 hrs by MTT assay. Type of data set: toxicity, cell-based.
The test system of data set [25] is 518A2. In words: cells. Type of data set: functional, cell-based. The conditions noted are these: Homo sapiens, 518A2, 72 h.
Data set [26] concerns HCT-116. The data set can be described thus: cells. Type of data set: functional, cell-based. Conditions: Homo sapiens, HCT-116, 72 h.
For data set [27], the system named is HCT 116 TP53(-/-). The data set can be described thus: cells. Type of data set: functional, cell-based. Conditions: Homo sapiens, 72 h.
Data set [28] relates to Huh-7. In words: cells. Type of data set: functional, cell-based. Conditions: Homo sapiens, Huh-7, 72 h.
Data set [29] concerns MM96L. The data set can be described thus: Antiproliferative activity against human MM96L cells. Type of data set: functional, cell-based.
In data set [30] the target is T2, Histone deacetylase 2. In words: Inhibition of HDAC2 (unknown origin).
Data set [31] concerns HT-29. The data set can be described thus: Antiproliferative activity against human HT-29 cells. Format: functional, cell-based.
Data set [32] can be described thus: Cytotoxicity against human NFF cells. Type of data set: toxicity, cell-based.
In data set [33] the test system is A549. In words: Antiproliferative activity against human A549 cells.
The subject of data set [34] is HeLa. The data set can be described thus: Antiproliferative activity against human HeLa cells. Format: functional, cell-based.
Data set [35] has as its system MDA-MB-231. In words: Antitumor activity against human MDA-MB-231 cells xenografted in BALB/c nude mouse assessed as tumor growth inhibition by measuring test to control ratio at 30 mg/kg/day, po measured every 3 days for 22 days relative to control. Type of data set: functional. The conditions noted are these: time 22 day.
The nature of data set [36]: Metabolic stability in human plasma assessed as half life by LC-MS/MS analysis. Type of data set: ADME, cell-free.
Data set [37] deals with MDA-MB-231. The data set can be described thus: Antitumor activity against human MDA-MB-231 cells xenografted in BALB/c nude mouse assessed as tumor growth inhibition at 30 mg/kg/day, po measured every 3 days for 22 days relative to control. Conditions: MDA-MB-231, 528 h, time 22 day, read-out: TGI. Format: functional.
Data set [38] can be described thus: Metabolic stability in human liver microsomes assessed as half life by LC-MS/MS analysis. Format: ADME, Microsome. In general terms: Liver microsomes are vesicles of endoplasmic reticulum, rich in cytochrome P450 enzymes.

Usually IC50 stands for the concentration that inhibits the measured activity by half. With `O=C(/C=C/c1ccc2nn(Cc3ccc(Cl)cc3)cc2c1)NO`, the IC50 worked out at 196 nM in [1], 231 nM in data set [2], 196 nM in [3] and 196 nM in [4].

As for `O=C(NO)c1ccc(CN(Cc2nnnn2Cc2ccccc2)C(=O)c2ccccc2C(F)(F)F)cc1`, the IC50 in [5] was 22500 nM; in data set [6], 22500 nM; in data set [7], 22500 nM; in data set [8], 22500 nM; in data set [2], 60 nM; in data set [9], 22500 nM. In [10], the IC50 was 22500 nM.

Turning to `O=C(CCCCCCC(=O)Nc1nc2c(s1)C[C@@H](NC(=O)c1cccc3ccccc13)CC2)NO`, the IC50 in data set [11] worked out at 1500 nM; in data set [12], 1220 nM; in [14] it was 1220 nM; in [15], 1.4 nM; in [16], 1220 nM; in data set [17] it was 1220 nM. Also, the IC50 in data set [18] amounted to 1.4 nM; in data set [19], 1220 nM; in [20], 1220 nM; in data set [21], 1.4 nM; in data set [22], 1220 nM. The IC50 at 72 h in data set [13] stood at 43800 nM; in data set [23], 24400 nM.

Turning to `COc1ccc(-c2ocnc2-c2cc(OC)c(OC)c(OC)c2)cc1OCCCC(=O)NO`, the IC50 at 72 h in data set [24] is greater than 50000 nM. The IC50 in data set [14] is 180 nM; in [25] it was 180 nM; in data set [26] it was 180 nM; in [27], 180 nM; in data set [2] it was roughly 1000 nM; in [28], 180 nM.

In the case of `O=C(NO)c1ccc(NC(=O)C2(c3ccc(-c4cn[nH]c4)cc3)CCCCC2)cc1`, the IC50 in data set [1] was found to be 50 nM; in data set [29], 50 nM; in data set [30], 2 nM; in [31], 50 nM; in [32] it was 50 nM; in data set [33], 50 nM. In data set [34], this molecule gave an IC50 of 50 nM.

The T/C is the result in the treated group divided by that in the control group, in per cent. A word on the half-life: it is how long it takes for the measured level to halve. For `O=C(CCCCCCC(=O)Nc1nc2ccc(OC(F)(F)F)cc2s1)NO`, in data set [35], the T/C was 55%. Besides, the results for the half-life in data set [36] and in data set [38] were greater than 120 min and 56 min, respectively. In [37], the inhibition in vivo at 30 mg/kg/day was 59%.
